Experimental data reported in patent US20250129070A1, “BIFUNCTIONAL ANDROGEN RECEPTOR COMPOUNDS” (priority 2023, published 2025).

Columns and labels:
[1] = test system: AR / CBP ternary complex; assay: Ternary complex formation assay (sandwich ELISA, AR capture / CBP detection) in VCaP cell lysates; type: cell-based; details: 1.5 hours treatment, sandwich ELISA (AR capture, CBP or p300 detection)
In short: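 Anti-AR (AR 441)-coated plates capture AR from lysates of VCaP cells grown ≥3 days at 50K/well in 5% charcoal-stripped FBS, dosed with bifunctional for 1.5 h and lysed 30 min at 4 °C. Co-captured CBP/p300 is probed with rabbit mAb and HRP anti-rabbit, then QuantaRed fluorescence (570/585) is read at 0, 5 and 15 min.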

[2] = test system: VCaP cells; assay: VCaP growth inhibition assay; type: cell-based; details: 30 pM R1881, 9 days, CTG
In short: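 Growth read by CTG luminescence after 9-day exposure to compound (final 100 nM–10 fM, 1:5 steps) plus 30 pM R1881, in phenol red-free DMEM with 5% CSS. Cells pre-incubated 72 h before dosing; IC50 by nonlinear 4-parameter regression.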

Row | Compound | EC50 [1] [nM] | IC50 [2] [nM]
1 | COc1cc(OC2C(C)(C)C(NC(=O)c3ccc(N4CC5(CCC(C6CCC(n7nc(N8CCCc9cc(-c%10cnn(C)c%10)c(C(F)F)cc98)c8c7CCN(C(C)=O)C8)CC6)CC5)C4)cc3)C2(C)C)ccc1C#N (stereo not drawn) [Compound 380, 4-[7-[4-[5-acetyl-3-[7-(difluoromethyl)-6-(1-methylpyrazol-4-yl)-3,4-dihydro-2H-quinolin-1-yl]-6,7-dihydro-4Hpyrazolo[4,3-c]pyridin-1-yl]cyclohexyl]-2-azaspiro[3.5]nonan-2-yl]-N-[3-(4-cyano-3-methoxy-phenoxy)-2,2,4,4-tetramethyl-cyclobutyl]benzamide] | 1 to 10 | 1 to 100
2 | COc1cc(OC2C(C)(C)C(NC(=O)c3ccc(N4CC(N5CCCC6(CCC(n7nc(N8CCCc9cc(-c%10cnn(C)c%10)c(C(F)F)cc98)c8c7CCN(C(C)=O)C8)CC6)C5)C4)cc3)C2(C)C)ccc1C#N (stereo not drawn) [Compound 415, 4-[3-[9-[5-acetyl-3-[7-(difluoromethyl)-6-(1-methylpyrazol-4-yl)-3,4-dihydro-2H-quinolin-1-yl]-6,7-dihydro-4Hpyrazolo[4,3-c]pyridin-1-yl]-2-azaspiro[5.5]undecan-2-yl]azetidin-1-yl]-N-[3-(4-cyano-3-methoxy-phenoxy)-2,2,4,4-tetramethyl-cyclobutyl]benzamide] | 1 to 10 | 1 to 100
3 | C[C@@H]1CC(=O)Nc2cccc(-c3ccc4c(c3)c(-c3cnn(C)c3)nn4CCN(C)c3ncc(C(=O)NC4C(C)(C)C(Oc5ccc(C#N)c(Cl)c5)C4(C)C)cn3)c2N1 (stereo partly drawn) [Compound 48, N-[3-(3-chloro-4-cyano-phenoxy)-2,2,4,4-tetramethyl-cyclobutyl]-2-[methyl-[2-[5-[(4R)-4-methyl-2-oxo-1,3,4,5-tetrahydro-1,5-benzodiazepin-6-yl]-3-(1-methylpyrazol-4-yl)indazol-1-yl]ethyl]amino]pyrimidine-5-carboxamide] | > 100 | 1 to 100
4 | CC(=O)N1CCc2c(c(N3CCCc4cc(-c5cnn(C)c5)c(C(F)F)cc43)nn2C2CCC3(CC2)CCN(CC2CN(c4ccc(C(=O)NC5C(C)(C)C(Oc6ccc(C#N)c(Cl)c6)C5(C)C)nn4)C2)CC3)C1 (stereo not drawn) [Compound 209, 6-[3-[[9-[5-acetyl-3-[7-(difluoromethyl)-6-(1-methylpyrazol-4-yl)-3,4-dihydro-2H-quinolin-1-yl]-6,7-dihydro-4H-pyrazolo[4,3-c]pyridin-1-yl]-3-azaspiro[5.5]undecan-3-yl]methyl]azetidin-1-yl]-N-[3-(3-chloro-4-cyano-phenoxy)-2,2,4,4-tetramethyl-cyclobutyl]pyridazine-3-carboxamide] | 10 to 100 | ≤ 0.1
5 | COc1cc(OC2C(C)(C)C(NC(=O)c3ccc(N4CCC(N5CCC(n6nc(N7CCCc8cc(-c9cnn(C)c9)c(C(F)F)cc87)c7c6CCN(C(C)=O)C7)CC5)C(C)C4)cc3)C2(C)C)ccc1C#N (stereo not drawn) [Compound 304, 4-[4-[4-[5-acetyl-3-[7-(difluoromethyl)-6-(1-methylpyrazol-4-yl)-3,4-dihydro-2H-quinolin-1-yl]-6,7-dihydro-4H-pyrazolo[4,3-c]pyridin-1-yl]-1-piperidyl]-3-methyl-1-piperidyl]-N-[3-(4-cyano-3-methoxy-phenoxy)-2,2,4,4-tetramethyl-cyclobutyl]benzamide] | < 1 | 0.1 to 1
6 | CC(=O)N1CCc2c(c(N3CCCc4cc(C#N)ccc43)nn2C2CCN(CC3CCN(c4ncc(C(=O)NC5C(C)(C)C(Oc6ccc(C#N)c(Cl)c6)C5(C)C)cn4)CC3)CC2)C1 (stereo not drawn) [Compound 155, 2-[4-[[4-[5-acetyl-3-(6-cyano-3,4-dihydro-2H-quinolin-1-yl)-6,7-dihydro-4H-pyrazolo[4,3-c]pyridin-1-yl]-1-piperidyl]methyl]-1-piperidyl]-N-[3-(3-chloro-4-cyano-phenoxy)-2,2,4,4-tetramethyl-cyclobutyl]pyrimidine-5-carboxamide] | < 1 | 0.1 to 1
7 | CC(=O)N1CCc2c(c(-c3cccc4cc(-c5ccc(COc6ncc(C(=O)NC7C(C)(C)C(Oc8ccc(C#N)c(Cl)c8)C7(C)C)cn6)nc5)ncc34)nn2C2CCOCC2)C1 (stereo not drawn) [Compound 71, 2-[[5-[8-(5-acetyl-1-tetrahydropyran-4-yl-6,7-dihydro-4H-pyrazolo[4,3-c]pyridin-3-yl)-3-isoquinolyl]-2-pyridyl]methoxy]-N-[3-(3-chloro-4-cyano-phenoxy)-2,2,4,4-tetramethyl-cyclobutyl]pyrimidine-5-carboxamide] | < 1 | 1 to 100
8 | CC(=O)N1CCc2c(c(-c3cccc4cc(-c5ccc(CC6CC7(C6)CN(c6ncc(C(=O)NC8C(C)(C)C(Oc9ccc(C#N)c(Cl)c9)C8(C)C)cn6)C7)nc5)ncc34)nn2C)C1 (stereo not drawn) [Compound 230, 2-[6-[[5-[8-(5-acetyl-1-methyl-6,7-dihydro-4H-pyrazolo[4,3-c]pyridin-3-yl)-3-isoquinolyl]-2-pyridyl]methyl]-2-azaspiro[3.3]heptan-2-yl]-N-[3-(3-chloro-4-cyano-phenoxy)-2,2,4,4-tetramethyl-cyclobutyl]pyrimidine-5-carboxamide] | 10 to 100 | 0.1 to 1
9 | COc1cc(OC2C(C)(C)C(NC(=O)c3ccc(N4CC(N5CCC6(CCC(n7nc(N8CCCc9cc(-c%10cnn(C)c%10)c(C(F)F)cc98)c8c7CCN(C(C)=O)C8)CC6)C5)C4)cc3)C2(C)C)ccc1C#N (stereo not drawn) [Compound 401, 4-[3-[8-[5-acetyl-3-[7-(difluoromethyl)-6-(1-methylpyrazol-4-yl)-3,4-dihydro-2H-quinolin-1-yl]-6,7-dihydro-4H-pyrazolo[4,3-c]pyridin-1-yl]-2-azaspiro [4.5]decan-2-yl]azetidin-1-yl]-N-[3-(4-cyano-3-methoxy-phenoxy)-2,2,4,4-tetramethyl-cyclobutyl]benzamide] | < 1 | 0.1 to 1
10 | CC(=O)N1CCc2c(c(N3CCCc4cc(-c5cnn(C)c5)c(C(F)F)cc43)nn2C2CCN(CC3CCN(c4ccc5c(n4)CN(C4C(C)(C)C(Oc6ccc(C#N)c(Cl)c6)C4(C)C)C5=O)CC3)CC2)C1 (stereo not drawn) [Compound 296, 4-[3-[2-[4-[[4-[5-acetyl-3-[7-(difluoromethyl)-6-(1-methylpyrazol-4-yl)-3,4-dihydro-2H-quinolin-1-yl]-6,7-dihydro-4H-pyrazolo[4,3-c]pyridin-1-yl]-1-piperidyl]methyl]-1-piperidyl]-5-oxo-7H-pyrrolo[3,4-b]pyridin-6-yl]-2,2,4,4-tetramethyl-cyclobutoxy]-2-chloro-benzonitrile] | < 1 | 0.1 to 1

Now from value to compound:

Row | EC50 [1] [nM] | IC50 [2] [nM] | Compound
11 | < 1 | ≤ 0.1 | CC(=O)N1CCc2c(c(N3CCCc4cc(-c5cnn(C)c5)c(C(F)F)cc43)nn2C2CCN(CCC3CCN(c4ncc(C(=O)NC5C(C)(C)C(Oc6ccc(C#N)c(Cl)c6)C5(C)C)cn4)CC3)CC2)C1 (stereo not drawn) [Compound 174, 2-[4-[2-[4-[5-acetyl-3-[7-(difluoromethyl)-6-(1-methylpyrazol-4-yl)-3,4-dihydro-2H-quinolin-1-yl]-6,7-dihydro-4H-pyrazolo[4,3-c]pyridin-1-yl]-1-piperidyl]ethyl]-1-piperidyl]-N-[3-(3-chloro-4-cyano-phenoxy)-2,2,4,4-tetramethyl-cyclobutyl]pyrimidine-5-carboxamide]
12 | < 1 | ≤ 0.1 | CC(=O)N1CCc2c(c(-c3cccc4cc(-c5ccc(CCC6CC7(C6)CN(c6ncc(C(=O)NC8C(C)(C)C(Oc9ccc(C#N)c(Cl)c9)C8(C)C)cn6)C7)nc5)ncc34)nn2C2CCOCC2)C1 (stereo not drawn) [Compound 227, 2-[6-[2-[5-[8-(5-acetyl-1-tetrahydropyran-4-yl-6,7-dihydro-4H-pyrazolo[4,3-c]pyridin-3-yl)-3-isoquinolyl]-2-pyridyl]ethyl]-2-azaspiro[3.3]heptan-2-yl]-N-[3-(3-chloro-4-cyano-phenoxy)-2,2,4,4-tetramethyl-cyclobutyl]pyrimidine-5-carboxamide]
13 | < 1 | ≤ 0.1 | COc1cc(OC2C(C)(C)C(NC(=O)c3ccc(N4CCC(N5CCC(n6nc(N7CCCc8cc(-c9cnn(C)c9)c(C(F)F)cc87)c7c6CCN(C(C)=O)C7)CC5)CC4)cc3)C2(C)C)ccc1C#N (stereo not drawn) [Compound 277, 4-[4-[4-[5-acetyl-3-[7-(difluoromethyl)-6-(1-methylpyrazol-4-yl)-3,4-dihydro-2H-quinolin-1-yl]-6,7-dihydro-4H-pyrazolo[4,3-c]pyridin-1-yl]-1-piperidyl]-1-piperidyl]-N-[3-(4-cyano-3-methoxy-phenoxy)-2,2,4,4-tetramethyl-cyclobutyl]benzamide]
14 | < 1 | 0.1 to 1 | COc1cc(OC2C(C)(C)C(NC(=O)c3ccc(N4CC5(CCC(N6CCC(n7nc(N8CCCc9cc(-c%10cnn(C)c%10)c(C)cc98)c8c7CCN(C(C)=O)C8)CC6)CC5)C4)cc3)C2(C)C)ccc1C#N (stereo not drawn) [Compound 449, 4-[7-[4-[5-acetyl-3-[7-methyl-6-(1-methylpyrazol-4-yl)-3,4-dihydro-2H-quinolin-1-yl]-6,7-dihydro-4H-pyrazolo[4,3-c]pyridin-1-yl]-1-piperidyl]-2-azaspiro[3.5]nonan-2-yl]-N-[3-(4-cyano-3-methoxy-phenoxy)-2,2,4,4-tetramethyl-cyclobutyl]benzamide]
15 | < 1 | 0.1 to 1 | COc1cc(OC2C(C)(C)C(NC(=O)c3ccc(N4CCC(CN5CCC(n6nc(N7CCCc8cc(C#N)c(C(F)F)cc87)c7c6CCN(C(C)=O)C7)CC5)C(C)(C)C4)cc3)C2(C)C)ccc1C#N (stereo not drawn) [Compound 451, 4-[4-[[4-[5-acetyl-3-[6-cyano-7-(difluoromethyl)-3,4-dihydro-2H-quinolin-1-yl]-6,7-dihydro-4H-pyrazolo[4,3-c]pyridin-1-yl]-1-piperidyl]methyl]-3,3-dimethyl-1-piperidyl]-N-[3-(4-cyano-3-methoxy-phenoxy)-2,2,4,4-tetramethyl-cyclobutyl]benzamide]
